A short description of assay [1]: Inhibition of Rhinovirus A08 capsid infected in human HeLa Rh cells assessed as reduction in virus-induced cytopathic effect after 3 days by MTS assay.
Assay [2] can be described thus: Inhibition of Rhinovirus B70 capsid infected in human HeLa Rh cells assessed as reduction in virus-induced cytopathic effect after 3 days by MTS assay. (Protection from cytopathic effect is a common read-out in antiviral testing.)
The nature of assay [3]: Inhibition of Rhinovirus A85 capsid infected in human HeLa Rh cells assessed as reduction in virus-induced cytopathic effect after 3 days by MTS assay.
Assay [4] can be described thus: Inhibition of Rhinovirus B14 capsid infected in human HeLa Rh cells assessed as reduction in virus-induced cytopathic effect after 3 days by MTS assay.
A short description of assay [5]: Inhibition of Rhinovirus B42 capsid infected in human HeLa Rh cells assessed as reduction in virus-induced cytopathic effect after 3 days by MTS assay.
Assay [6] in a line: Inhibition of Rhinovirus A89 capsid infected in human HeLa Rh cells assessed as reduction in virus-induced cytopathic effect after 3 days by MTS assay.
Assay [7] can be described thus: Inhibition of Rhinovirus A02 capsid infected in human HeLa Rh cells assessed as reduction in virus-induced cytopathic effect after 3 days by MTS assay.
Assay [8] is described as follows: Inhibition of Rhinovirus A28 capsid infected in human HeLa Rh cells assessed as reduction in virus-induced cytopathic effect after 3 days by MTS assay.

Structures are written as SMILES.

As a reminder, the EC50 is the concentration giving half of the maximal effect. In the case of `Cn1cc(-c2ccc(C[C@@H](O)c3ccc(-n4cccn4)cc3)c([N+](=O)[O-])c2)cn1`, the EC50 was > 128 µM in assay [1]; > 128000 nM in assay [2]; > 128 µM in assay [3]; 2500 nM in assay [4]; > 128 µM in assay [5]; 190 nM in assay [6]. For the same molecule, the concentration for a half-maximal effect (EC50) in assay [7] and in assay [8] was > 128 µM each time.
Regarding `O=[N+]([O-])c1cc(Br)ccc1CC(O)c1ccc(-n2cccn2)cc1` (stereo not given), in assay [4], the 50% effective concentration (EC50) worked out at 250 nM.
Regarding `Cn1cc(-c2ccc(C[C@H](O)c3ccc(-n4cccn4)cc3)c([N+](=O)[O-])c2)cn1`, the EC50 in assay [1] is > 128 µM; in assay [2] it was 17 nM; in assay [3] it was > 128 µM; in assay [4], 35 nM; in assay [5] it was > 128 µM; in assay [6] it was 2400 nM. Moreover, the half-maximal effective concentration (EC50) in assay [7] and in assay [8] was > 128 µM each time.
For the molecule `Cn1cc(-c2ccc(C[C@H](O)c3ccc(-n4cncn4)cc3)c([N+](=O)[O-])c2)cn1`, the EC50 in assay [1] is > 128 µM; in assay [2], 50 nM; in assay [3] it was > 128 µM; in assay [4], 60 nM; in assay [5], > 128 µM; in assay [6] it was > 128000 nM. Besides, the EC50 in assay [7] and in assay [8] was > 128 µM throughout.
Take `O=[N+]([O-])c1cc(-c2cncs2)ccc1CC(O)c1ccc(-n2cncn2)cc1` (stereo not given): the concentration for a half-maximal effect (EC50) in assay [4] amounted to 400 nM.
For the molecule `Cc1noc(C)c1-c1ccc(CC(O)c2ccc(-n3cncn3)cc2)c([N+](=O)[O-])c1` (stereo not given), the EC50 in assay [4] was > 247000 nM.
As for `O=[N+]([O-])c1cc(Br)ccc1CC(O)c1ccc(-n2cncn2)cc1` (stereo not given), the EC50 in assay [4] is 250 nM.
Same read-out and setting: next, `Cc1noc(C)c1-c1ccc(CC(O)c2ccc(-n3cccn3)cc2)c([N+](=O)[O-])c1` (stereo not given): > 247000 nM.
`Cn1cc(-c2ccc(CC(O)c3ccc(-n4cccn4)cc3)c([N+](=O)[O-])c2)cn1` (stereo not given): the EC50 in assay [4] was 200 nM.
The same measure, in the same setting: with `O=[N+]([O-])c1cc(Cl)ccc1CC(O)c1ccc(-n2cccn2)cc1` (stereo not given) the figure was 128 nM; with `Cn1nc(C(F)(F)F)cc1-c1ccc(CC(O)c2ccc(-c3ccncc3)cc2)c([N+](=O)[O-])c1` (stereo not given), 1000 nM; with `O=[N+]([O-])c1cc(Br)ccc1CC(O)c1ccc(-c2ccncc2)cc1` (stereo not given), 590 nM.
In the case of `Cn1cc(-c2ccc(C[C@@H](O)c3ccc(-n4cncn4)cc3)c([N+](=O)[O-])c2)cn1`, the EC50 in assay [1] was > 128 µM; in assay [2], > 20000 nM; in assay [3], > 128 µM; in assay [4], > 128000 nM; in assay [5] it was > 128 µM; in assay [6] it was 1500 nM. Also, the EC50 in assay [7] and in assay [8] was > 128 µM in each case.
Turning to `COC(=O)c1ccc(CC(O)c2ccc(-c3ccncc3)cc2)c([N+](=O)[O-])c1` (stereo not given), the EC50 in assay [4] came out at 6400 nM.
With `Cn1cc(-c2ccc(CC(O)c3ccc(-n4cncn4)cc3)c([N+](=O)[O-])c2)cn1` (stereo not given), in assay [4], the EC50 amounted to 180 nM.
On the same count and under the same terms, with `O=[N+]([O-])c1cc(-c2ccco2)ccc1CC(O)c1ccc(-c2ccncc2)cc1` (stereo not given) the figure was 1200 nM.
As for `O=[N+]([O-])c1cc(F)ccc1CC(O)c1ccc(-n2cccn2)cc1` (stereo not given), in assay [4], the EC50 stood at 8700 nM.
Take `Cn1nc(C(F)(F)F)cc1-c1ccc(CC(O)c2ccc(-n3cccn3)cc2)c([N+](=O)[O-])c1` (stereo not given): in assay [4], the concentration for a half-maximal effect (EC50) is 500 nM.
For the molecule `O=[N+]([O-])c1cc(-c2cccs2)ccc1CC(O)c1ccc(-c2ccncc2)cc1` (stereo not given), the EC50 in assay [4] turned out to be 1300 nM.
On to `Cc1cc(CCCOc2c(C)cc(-c3noc(C(F)(F)F)n3)cc2C)on1` [3-(3,5-dimethyl-4-(3-(3-methylisoxazol-5-yl)propoxy)phenyl)-5-(trifluoromethyl)-1,2,4-oxadiazole], for which the EC50 is 0.49 µM in assay [1]; 167 nM in assay [2]; 0.011 µM in assay [3]; 30 nM in assay [4]; > 128 µM in assay [5]; 4 nM in assay [6]. Moreover, the 50% effective concentration (EC50) in assay [7] and in assay [8] was 0.015 µM each time.

Values taken from BindingDB's records for doi:10.1021/acs.jmedchem.8b00931 (Umr 7273 Cnrs, 2018).
